Measured values: US20140107021A1 (priority 2010, published 2014)
Like-named read-outs stand apart in the source and are kept apart here. Square brackets hold non-standard residues; d marks the D form. Ends that are not written are not given here. Peptide text beside a SMILES is read from it. MCA = alpha-methylhydrocinnamic acid (2-methyl-3-phenylpropanoic acid); PEG 20 kDa = PEG of about 20 kDa linked to Cys (maleimido methoxyPEG); PLA = 3-phenyllactic acid (2-hydroxy-3-phenylpropanoic acid)

Experiments:
glucagon receptor [1] = target: T1, glucagon receptor (Homo sapiens, UniProt P47871); assay: cell-based; conditions: for IC50(nM) (cΛMP, inhibit 0.2 mM Glucagon): Table L
T1 sequence (P47871 26-477): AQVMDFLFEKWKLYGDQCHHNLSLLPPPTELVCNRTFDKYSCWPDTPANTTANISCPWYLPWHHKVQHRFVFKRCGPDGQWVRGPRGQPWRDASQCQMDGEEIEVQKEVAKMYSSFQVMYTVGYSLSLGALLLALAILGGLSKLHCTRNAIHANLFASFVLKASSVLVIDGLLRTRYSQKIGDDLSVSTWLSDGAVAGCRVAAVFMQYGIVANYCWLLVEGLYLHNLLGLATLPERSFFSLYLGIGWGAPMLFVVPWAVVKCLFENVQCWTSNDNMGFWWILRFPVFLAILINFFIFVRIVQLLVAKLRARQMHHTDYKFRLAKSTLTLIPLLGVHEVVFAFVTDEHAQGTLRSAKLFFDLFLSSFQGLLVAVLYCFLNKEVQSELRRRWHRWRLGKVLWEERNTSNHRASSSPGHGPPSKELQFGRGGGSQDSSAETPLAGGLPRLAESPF
Excerpt: (§1) HEK293 cells co-transfected with the receptor and luciferase gene linked to a cAMP responsive element were employed for the bioassay.
(§2) All EC50s and IC50s are reported in the following examples in nM, unless indicated otherwise.

GLP-1 receptor = target: T2, GLP-1 receptor (Homo sapiens, UniProt P43220); assay: cAMP induction at the GLP-1 receptor (agonist activity), firefly luciferase reporter assay in HEK293 cells; format: cell-based
T2 construct: expressed in transfected cells; host or cells: HEK293
T2 sequence (P43220 24-463): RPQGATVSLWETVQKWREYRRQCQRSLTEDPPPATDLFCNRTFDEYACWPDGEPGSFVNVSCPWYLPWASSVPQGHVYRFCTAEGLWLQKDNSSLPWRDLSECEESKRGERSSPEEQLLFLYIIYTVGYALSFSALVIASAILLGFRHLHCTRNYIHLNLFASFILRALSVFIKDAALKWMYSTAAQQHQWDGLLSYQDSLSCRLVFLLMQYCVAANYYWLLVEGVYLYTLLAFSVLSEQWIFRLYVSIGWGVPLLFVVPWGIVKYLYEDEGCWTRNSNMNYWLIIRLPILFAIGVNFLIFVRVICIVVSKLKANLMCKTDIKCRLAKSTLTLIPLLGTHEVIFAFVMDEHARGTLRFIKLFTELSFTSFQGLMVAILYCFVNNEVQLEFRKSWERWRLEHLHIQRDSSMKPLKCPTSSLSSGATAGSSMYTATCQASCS
Excerpt: as §1, §2

glucagon receptor [2] = target: T1, glucagon receptor; assay: cAMP induction at the glucagon receptor (agonist activity), luciferase reporter assay in HEK293 cells; format: cell-based; design: expressed in transfected cells; host or cells: HEK293; conditions: Table E; read-out: cAMP Induction EC50
Excerpt: as §1, §2

## CSCC[C@H](NC(=O)[C@H](CC(C)C)NC(=O)[C@H](Cc1c[nH]c2ccccc12)NC(=O)[C@H](CCC(N)=O)NC(=O)[C@@H](NC(=O)[C@H](Cc1ccccc1)NC(=O)[C@H](CC(=O)O)NC(=O)[C@@H]1CCCCNC(=O)CC[C@H](NC(=O)[C@H](CC(=O)O)NC(=O)[C@H](CC(C)C)NC(=O)[C@H](Cc2ccc(O)cc2)NC(=O)[C@H](CCCCN)NC(=O)[C@H](CO)NC(=O)[C@H](Cc2ccc(O)cc2)NC(=O)[C@H](CCC(=O)O)NC(=O)[C@H](CO)NC(=O)[C@@H](NC(=O)[C@H](Cc2ccccc2)NC(=O)[C@@H](NC(=O)CNC(=O)[C@H](CCC(=O)O)NC(=O)[C@H](C)N)[C@@H](C)O)[C@@H](C)O)C(=O)N[C@@H](CCCNC(=N)N)C(=O)N[C@@H](CCCNC(=N)N)C(=O)N[C@@H](C)C(=O)N1)C(C)C)C(=O)N[C@@H](CC(=O)O)C(=O)N[C@H](C(N)=O)[C@@H](C)O [[A2E3, E16K20(Lactam),D28]G(2~29)]
Glucagon receptor [1]; read-out: Glucagon IC50, Table B
  IC50: 63 nM

## CSCC[C@H](NC(=O)[C@H](CC(C)C)NC(=O)[C@H](Cc1c[nH]c2ccccc12)NC(=O)[C@H](CCC(N)=O)NC(=O)[C@@H](NC(=O)[C@H](Cc1ccccc1)NC(=O)[C@H](CC(=O)O)NC(=O)[C@H](CCC(N)=O)NC(=O)[C@H](C)NC(=O)[C@H](CCCNC(=N)N)NC(=O)[C@H](CCCNC(=N)N)NC(=O)[C@@H]1CCC(=O)NCCCC[C@H](NC(=O)[C@H](CO)NC(=O)[C@H](Cc2ccc(O)cc2)NC(=O)[C@H](CC(=O)O)NC(=O)[C@H](CO)NC(=O)[C@@H](NC(=O)[C@@H](O)Cc2ccccc2)[C@@H](C)O)C(=O)N[C@@H](Cc2ccc(O)cc2)C(=O)N[C@@H](CC(C)C)C(=O)N[C@@H](CC(=O)O)C(=O)N1)C(C)C)C(=O)N[C@@H](CC(=O)O)C(=O)N[C@H](C(N)=O)[C@@H](C)O [[PLA6, D9, K12E16(Lactam), D28]G(6-29)] (HELM PEPTIDE1{[O=C([C@@H](O)Cc1ccccc1)[*:2]].T.S.D.Y.S.K.Y.L.D.E.R.R.A.Q.D.F.V.Q.W.L.M.D.T.[am]}$PEPTIDE1,PEPTIDE1,7:R3-11:R3$$$V2.0)
Glucagon receptor [1]; Glucagon IC50 (nM), Table B
  IC50: 63 nM

## CSCC[C@H](NC(=O)[C@H](CC(C)C)NC(=O)[C@H](Cc1c[nH]c2ccccc12)NC(=O)[C@H](CCC(N)=O)NC(=O)[C@@H](NC(=O)[C@H](Cc1ccccc1)NC(=O)[C@H](CC(=O)O)NC(=O)[C@@H]1CCCCNC(=O)CC[C@H](NC(=O)[C@H](CC(=O)O)NC(=O)[C@H](CC(C)C)NC(=O)[C@H](Cc2ccc(O)cc2)NC(=O)[C@H](CCCCN)NC(=O)[C@H](CO)NC(=O)[C@H](Cc2ccc(O)cc2)NC(=O)[C@H](CCC(=O)O)NC(=O)[C@H](CO)NC(=O)[C@@H](NC(=O)[C@@H](O)Cc2ccccc2)[C@@H](C)O)C(=O)N[C@@H](CCCNC(=N)N)C(=O)N[C@@H](CCCNC(=N)N)C(=O)N[C@@H](C)C(=O)N1)C(C)C)C(=O)N[C@@H](CC(N)=O)C(=O)N[C@H](C(=O)NCC(=O)N1CCC[C@H]1C(=O)N[C@@H](CO)C(=O)N[C@@H](CO)C(=O)NCC(=O)N[C@@H](C)C(=O)N1CCC[C@H]1C(=O)N1CCC[C@H]1C(=O)N1CCC[C@H]1C(=O)N[C@@H](CO)C(N)=O)[C@@H](C)O [[PLA6, E9, E16K20(Lactam)]]
GLP-1 receptor; GLP-1 EC50 (nM), Table C
  EC50: 20 nM
GLP-1 receptor; GLP-1 ECso (nM), Table A
  EC50: 20 nM
Glucagon receptor [1]; Glu ICso (nM), Table A, Glu = glucagon
  IC50: 20 nM
Glucagon receptor [1]; Glucagon IC50 (nM), Table C
  IC50: 20 nM

## CSCC[C@H](NC(=O)[C@H](CC(C)C)NC(=O)[C@H](Cc1c[nH]c2ccccc12)NC(=O)[C@H](CCC(N)=O)NC(=O)[C@@H](NC(=O)[C@H](Cc1ccccc1)NC(=O)[C@H](CC(=O)O)NC(=O)[C@H](CCC(N)=O)NC(=O)[C@H](C)NC(=O)[C@H](CCCNC(=N)N)NC(=O)[C@H](CCCNC(=N)N)NC(=O)[C@H](CO)NC(=O)[C@H](CC(=O)O)NC(=O)[C@H](CC(C)C)NC(=O)[C@H](Cc1ccc(O)cc1)NC(=O)[C@H](CCCCN)NC(=O)[C@H](CO)NC(=O)[C@H](Cc1ccc(O)cc1)NC(=O)[C@H](CCC(=O)O)NC(=O)[C@H](CO)NC(=O)[C@@H](NC(=O)[C@H](Cc1ccccc1)NC(=O)[C@@H](NC(=O)[C@@H](O)Cc1ccccc1)[C@@H](C)O)[C@@H](C)O)C(C)C)C(=O)N[C@@H](CC(N)=O)C(=O)N[C@H](C(N)=O)[C@@H](C)O [[PLA^4, E^9]Glucagon(aa4-29)-NH2] (HELM PEPTIDE1{[O=C([C@@H](O)Cc1ccccc1)[*:2]].T.F.T.S.E.Y.S.K.Y.L.D.S.R.R.A.Q.D.F.V.Q.W.L.M.N.T.[am]}$$$$V2.0)
Glucagon receptor [1]; IC50(nM) (cAMP, inhibit 0.8 mM Glucagon), Table K, inhibit 0.8 mM Glucagon
  IC50: 84.4 ± 19.5 nM

## CC(C)C[C@H](NC(=O)[C@H](Cc1ccc(O)cc1)NC(=O)[C@H](CCCCN)NC(=O)[C@H](CO)NC(=O)[C@H](Cc1ccc(O)cc1)NC(=O)[C@H](CCS(=O)(=O)O)NC(=O)[C@H](CO)NC(=O)[C@@H](NC(=O)[C@H](Cc1ccccc1)NC(=O)[C@@H](NC(=O)[C@H](CC(C)C)NC(=O)[C@H](CCC(N)=O)NC(=O)[C@@H](N)CO)[C@@H](C)O)[C@@H](C)O)C(=O)N[C@@H](CC(=O)O)C(=O)N[C@@H](CO)C(=O)N[C@@H](CCCNC(=N)N)C(=O)N[C@@H](CCCNC(=N)N)C(=O)N[C@@H](C)C(=O)N[C@@H](CCC(N)=O)C(=O)N[C@@H](CC(=O)O)C(=O)N[C@@H](Cc1ccccc1)C(=O)N[C@H](C(=O)N[C@@H](CCC(N)=O)C(=O)N[C@@H](Cc1ccccc1)C(=O)N[C@@H](CC(C)C)C(=O)N[C@@H](CC(C)C)C(=O)N[C@@H](CC(N)=O)C(=O)N[C@H](C(N)=O)[C@@H](C)O)C(C)C [[desHis^1, Leu^4, hCys^9(SO3—), Phe^25, Leu^27]Glucagon-NH2] (HELM PEPTIDE1{S.Q.L.T.F.T.S.[O=C([C@H](CCS(=O)(=O)O)N[*:1])[*:2]].Y.S.K.Y.L.D.S.R.R.A.Q.D.F.V.Q.F.L.L.N.T.[am]}$$$$V2.0)
Glucagon receptor [2]
  EC50: 1610 ± 1130 nM

## CSCC[C@H](NC(=O)[C@H](CC(C)C)NC(=O)[C@H](Cc1c[nH]c2ccccc12)NC(=O)[C@H](CCC(N)=O)NC(=O)[C@@H](NC(=O)[C@H](Cc1ccccc1)NC(=O)[C@H](CC(=O)O)NC(=O)[C@H](CCC(N)=O)NC(=O)[C@H](C)NC(=O)[C@H](CCCNC(=N)N)NC(=O)[C@H](CCCNC(=N)N)NC(=O)[C@H](CO)NC(=O)[C@H](CC(=O)O)NC(=O)[C@H](CC(C)C)NC(=O)[C@H](Cc1ccc(O)cc1)NC(=O)[C@H](CCCCN)NC(=O)[C@H](CO)NC(=O)[C@H](Cc1ccc(O)cc1)NC(=O)[C@H](CCS(=O)(=O)O)NC(=O)[C@H](CO)NC(=O)[C@@H](NC(=O)[C@H](Cc1ccccc1)NC(=O)[C@@H](NC(=O)CN)[C@@H](C)O)[C@@H](C)O)C(C)C)C(=O)N[C@@H](CC(N)=O)C(=O)N[C@H](C(N)=O)[C@@H](C)O [[hCys^9(SO3H)]Glucagon(aa4-29)-NH2] (HELM PEPTIDE1{G.T.F.T.S.[O=C([C@H](CCS(=O)(=O)O)N[*:1])[*:2]].Y.S.K.Y.L.D.S.R.R.A.Q.D.F.V.Q.W.L.M.N.T.[am]}$$$$V2.0; N-terminus assumed)
Glucagon receptor [1]
  Kb: 60.3 nM

## CSCC[C@H](NC(=O)[C@H](CC(C)C)NC(=O)[C@H](Cc1c[nH]c2ccccc12)NC(=O)[C@H](CCC(N)=O)NC(=O)[C@@H](NC(=O)[C@H](Cc1ccccc1)NC(=O)[C@H](CC(=O)O)NC(=O)[C@H](CCC(N)=O)NC(=O)[C@H](C)NC(=O)[C@H](CCCNC(=N)N)NC(=O)[C@H](CCCNC(=N)N)NC(=O)[C@H](CO)NC(=O)[C@H](CC(=O)O)NC(=O)[C@H](CC(C)C)NC(=O)[C@H](Cc1ccc(O)cc1)NC(=O)[C@H](CCCCN)NC(=O)[C@H](CO)NC(=O)[C@H](Cc1ccc(O)cc1)NC(=O)[C@H](CCS(=O)(=O)O)NC(=O)[C@H](CO)NC(=O)[C@@H](NC(=O)[C@H](Cc1ccccc1)NC(=O)[C@@H](N)[C@@H](C)O)[C@@H](C)O)C(C)C)C(=O)N[C@@H](CC(N)=O)C(=O)N[C@H](C(N)=O)[C@@H](C)O [[hCys^9(SO3H)]Glucagon(aa5-29)-NH2] (HELM PEPTIDE1{T.F.T.S.[O=C([C@H](CCS(=O)(=O)O)N[*:1])[*:2]].Y.S.K.Y.L.D.S.R.R.A.Q.D.F.V.Q.W.L.M.N.T.[am]}$$$$V2.0; N-terminus assumed)
Glucagon receptor [1]
  Kb: 170 nM

## FTSDYSKYLDSRRAQDFVQWLMNT-NH2 [Glucagon(aa6-29)-NH2]
Glucagon receptor [1]
  Kb: 115 nM
  cAMP (I/A)50: 1730
  cAMP pA2: 6.94 ± 0.63

## GTFTSEYSKYLDSRRAQDFVQWLMNT-NH2 [[Glu^9]Glucagon(aa4-29)-NH2]
Glucagon receptor [1]
  Kb: 89.1 nM

## H-FTSKYSKYLDSRRAQDFVQWLMNT-NH2 [[Lys^9]Glucagon(aa6-29)-NH2]
Glucagon receptor [1]
  Kb: 263 nM
  cAMP (I/A)50: 1990
  cAMP pA2: 6.58 ± 0.60

## HSQGTFTSDYARYLDARRAREFIKWLVRGRG [ANK2 (Bayer peptide), reference compound]
Glucagon receptor [1]; Table B
  Glucagon IC50 (nM): agonist

## [MCA6, E9, C24(20 kDaPEG)]Glucagon(aa6-29)-NII2 ([MCA]TSEYSKYLDSRRAQDFVC(PEG 20 kDa)WLMNT-NH2)
Glucagon receptor [1]
  IC50(nM) (cΛMP, inhibit 0.2 mM Glucagon): no antagonism

## [PLA6, C8(1.2 kDaPEG), E9]Glucagon(aa6-29)-NH2 ({PLA}-TC(PEG 1.2 kDa)EYSKYLDSRRAQDFVQWLMNT-NH2)
Glucagon receptor [1]
  IC50(nM) (cΛMP, inhibit 0.2 mM Glucagon): no antagonism
